Here are results for four compounds from patent publication US20140275049A1, “SUBSTITUTED PYRAZOLE ANALOGS As RAR ANTAGONISTS” (Eli Lilly and Company, priority 2011, published 2014).

SMILES strings stand for the structures.

Usually Ki stands for a measure of affinity in units of concentration, obtained from inhibition or displacement. The low end stands for higher affinity, the high end for lower affinity. For orientation: Kb means the equilibrium dissociation constant of an antagonist, usually derived from a functional assay. A high value points to lower antagonist affinity.

One assay deals with T1, RARβ (Homo sapiens, UniProt P10826).
T1 construct: made in house; host or cells: baculovirus expression system
T1 sequence (P10826 1-455): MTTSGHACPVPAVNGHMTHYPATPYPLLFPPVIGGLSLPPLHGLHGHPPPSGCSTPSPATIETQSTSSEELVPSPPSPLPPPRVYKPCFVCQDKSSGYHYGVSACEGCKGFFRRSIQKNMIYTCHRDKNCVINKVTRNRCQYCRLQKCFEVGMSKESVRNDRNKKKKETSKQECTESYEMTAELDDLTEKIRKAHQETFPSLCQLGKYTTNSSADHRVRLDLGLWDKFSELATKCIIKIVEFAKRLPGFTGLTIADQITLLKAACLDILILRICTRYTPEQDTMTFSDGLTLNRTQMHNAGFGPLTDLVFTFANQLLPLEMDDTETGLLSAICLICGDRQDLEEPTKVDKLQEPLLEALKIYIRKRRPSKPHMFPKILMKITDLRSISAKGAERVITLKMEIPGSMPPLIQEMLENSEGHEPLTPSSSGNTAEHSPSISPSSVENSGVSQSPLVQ
T1 sequence (P19793 1-462 partner): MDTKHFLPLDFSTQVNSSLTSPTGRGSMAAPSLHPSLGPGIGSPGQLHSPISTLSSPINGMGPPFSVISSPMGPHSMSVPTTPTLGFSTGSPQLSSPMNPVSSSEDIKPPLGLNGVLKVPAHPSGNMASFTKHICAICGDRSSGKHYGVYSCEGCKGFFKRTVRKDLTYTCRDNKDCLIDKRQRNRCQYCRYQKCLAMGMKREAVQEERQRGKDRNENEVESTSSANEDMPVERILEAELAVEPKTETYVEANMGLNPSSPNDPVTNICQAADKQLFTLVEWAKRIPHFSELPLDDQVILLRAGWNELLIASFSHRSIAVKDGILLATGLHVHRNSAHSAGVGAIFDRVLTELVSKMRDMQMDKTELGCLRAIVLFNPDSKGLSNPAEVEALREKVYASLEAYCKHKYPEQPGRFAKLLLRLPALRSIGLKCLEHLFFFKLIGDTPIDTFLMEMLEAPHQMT
Kind of assay: RARβ binding assay (SPA, 3H-TTNPB competition). The following applies: RARβ/RXRα heterodimer. The text has this: Compounds can be evaluated for binding to RARα, β and γ by measuring their ability to competitively bind to the RAR receptors when dimerized with the binding partner RXRα. Competitive binding assays may be carried out by Scintillation Proximity Assay (SPA) technology using the RARα, β or γ heterodimer (with RXRα as a partner with all the RARs) receptors prepared in a baculovirus expression system. Use the biotinylated oligonucleotide: 5′-[…]-3′ for binding of receptor to yttrium silicate streptavidin-coated SPA beads. Per well, preincubate […] with 82.7 μg SPA beads in a binding buffer containing 10 mM HEPES pH 7.8, 80 mM KCl, 0.5 mM MgCl2, 1 mM DTT, 0.5% CHAPS and 16.6 μg bovine serum albumin for 30 min at room temperature. Then spin the mixture at 2,000 rpm for 3 min to pelletize the beads-oligo mix. Remove the supernatant and resuspend the beads-oligo pellet in the same binding buffer as above, but which in addition now also contain 14% glycerol, 5 μg of sheared salmon sperm DNA, 0.5 μg of RARα, 1.0 μg of RARβ, or 0.25 μg of RARγ receptor, respectively. Carry out the binding assays in the presence of ˜11.3 μCi of ^3H 4-[(E)-2-(5,6,7,8-tetrahydro-5,5,8,8-tetramethyl-2-naphthalenyl)-1-propenyl]benzoic acid (TTNPB), and multiple concentrations of test compound ranging from (5 nM to 10 μM). Non-specific binding may be determined in the presence of 1 μM unlabeled TTNPB. Use the data to calculate an IC50 for compounds after fitting the dose-response curves to a 4-parameter logistic fit. Use the Cheng-Prusoff equation to convert IC50 (nM) values for compounds to Ki, and the Kd may be determined by saturation binding.

Assay [1] has as its target T2, Gal4 (DBD) RARγ (LBD) hybrid receptor (Homo sapiens, UniProt P13631).
T2 construct: Gal4 (DBD) RARγ (LBD), or the Gal4 (DBD) RARβ (LBD) hybrid receptor; expressed in transfected cells; host or cells: HEK 293
T2 sequence (P13631 185-419 limits assumed): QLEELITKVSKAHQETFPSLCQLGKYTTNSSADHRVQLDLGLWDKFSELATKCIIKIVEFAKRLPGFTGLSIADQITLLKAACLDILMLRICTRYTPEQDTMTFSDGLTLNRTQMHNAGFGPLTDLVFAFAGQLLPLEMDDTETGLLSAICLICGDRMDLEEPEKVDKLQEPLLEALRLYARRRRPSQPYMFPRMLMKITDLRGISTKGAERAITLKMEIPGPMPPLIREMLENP
As to the kind of experiment: Gal4 reporter assay to determine RAR receptor antagonist activity. The class given is cell-based. Particulars: HEK 293 cells, antagonist mode against EC80 ATRA, 24 hours, luciferase. The source says:
For cell-based assays, human embryonic kidney HEK 293 cells are transfected with receptor and reporter gene plasmids using Fugene. The reporter plasmid containing five Gal4 binding sites and a major late promoter of adenovirus upstream of the luciferase reporter cDNA is transfected together with a plasmid constitutively expressing the Gal4 DNA binding domain (DBD) and the RARα ligand binding domain (LBD), Gal4 (DBD) RARγ (LBD), or the Gal4 (DBD) RARβ (LBD) hybrid receptor using a SV40 promoter. Cells are transfected in poly-d-lysine coated T175 cm flasks in DMEM media with 5% charcoal-stripped Fetal Bovine Serum (FBS). After an overnight incubation, transfected cells are trypsinized, plated in opaque 96 well dishes in DMEM media containing 5% charcoal-stripped FBS, incubated for 4 h, and then exposed to 0.17 nM to 10 μM of test compound in half log dilutions. To determine the antagonist activity of the test compound, EC80 concentrations of agonist for each receptor is also added to the media (15 nM all-trans retinoic acid, ATRA, for RARα and RARγ, 10 nM of ATRA for RARβ). After 24 hours of incubation with compounds, cells are lysed and luciferase activity is determined. Data are fitted to a four parameter-fit logistics to determine IC50 values. The maximum % inhibition is determined versus the cellular response to 0.25% DMSO in the absence of ATRA.

Turning to `CN1CCN(C(=O)c2ccc(-n3nc(-c4ccc(C(=O)O)cc4)cc3-c3cc(C(C)(C)C)cc(C(C)(C)C)c3)cc2)CC1` [Example 1, 4-[5-(3,5-Di-tert-butylphenyl)-1-[4-(4-methylpiperazine-1-carbonyl)phenyl]pyrazol-3-yl]benzoic Acid], the Ki on RARβ is over 1820 nM. This compound showed an antagonist dissociation constant (Kb) in assay [1] of 23 ± 5.36 nM.
On to `CC(C)(C)c1cc(-c2cc(-c3ccc(C(=O)O)cc3)nn2-c2ccc(C(=O)N3CCOCC3)cc2)cc(C(C)(C)C)n1` [Example 8, 4-[5-(2,6-Di-tert-butyl-4-pyridyl)-1-[4-(morpholine-4-carbonyl)phenyl]pyrazol-3-yl]benzoic acid], for which, at RARβ, the inhibitory constant (Ki) came out at 1400 nM. This compound also registered a Kb in assay [1] of 28.7 nM.
Take `CC(C)Sc1cc(-c2cc(-c3ccc(C(=O)O)cc3)nn2-c2ccc(C(=O)N(C)C)cc2)cc(C(C)(C)C)c1` [Example 12, 4-[5-(3-tert-Butyl-5-isopropylsulfanyl-phenyl)-1-[4-(dimethylcarbamoyl)phenyl]pyrazol-3-yl]benzoic Acid]: affinity at RARβ was put at a Ki of 609 nM. In assay [1], this compound had a Kb of 30.2 nM.
Take `CC(C)(C)c1cc(-c2cc(-c3ccc(C(=O)O)cc3)nn2-c2ccc(S(C)(=O)=O)cc2)cc(C(C)(C)C)c1` [Example 19, 4-[5-(3,5-Di-tert-butylphenyl)-1-(4-methylsulfonylphenyl)pyrazol-3-yl]benzoic Acid]: on RARβ, affinity was put at a Ki of 828 nM. Moreover, the antagonist equilibrium constant (Kb) in assay [1] came to 34.6 nM.
